Results from patent US3954780A, “Propionic acid derivatives” (Innothera, priority 1970, dated 1976).
Converted amounts (≈) assume the structure as drawn. “And” between values parts separate entries of the source, which are not always exact repeats. Identical values can stand only once. Counter-ions that a name gives are not always drawn.

Columns and labels:
[1] = tested on: isolated rat duodenum; experiment: Spasmolytic activity of papaverinic type, barium chloride contracture; settings: Tyrode 38°; for EC50: read-out: Spasmolytic activity Papaverinic type DE 50 (converted)
Description: a. To show activity of the papaverinic type, the contracturant used is barium chloride acting on the isolated rat duodenum.
The average activity of the substances studied has been effected by determining graphically their DE 30 and DE 50 these being expressed in μg for 20 ml of bath.

[2] = tested on: isolated ileum of the guinea-pig; experiment: Spasmolytic activity of atropinic type, acetylcholine chloride contracture; settings: Tyrode 33°; for EC50: Cavia porcellus, read-out: Spasmolytic activity Atropinic type DE 50 (converted)
Excerpt: b. To show activity of atropinic type the contracturant used is acetylcholine chloride acting on the isolated ileum of the guinea-pig. […]

[3] = tested on: skin reflex; experiment: Local anaesthetic activity, conduction anaesthesia (method of Moukhtar); format: in vivo; settings: procaine hydrochloride 0.50 g/100 ml, intradermal 0.20 ml; hydrochloride
Excerpt: The method of MOUKHTAR has been chosen to show the activity of the derivatives studied on conduction anaesthesia (A. MOUKHTAR, C.R. Soc. Biol. 1909-66-187,189).
The reference local anaesthetic substance used in the tests has in each case been procaine hydrochloride in 0.5% solution in an 0.9% isotonic solution of NaCl. The three concentrations used to study the local anaesthetic activity of the new derivatives are 0.50, 0.25 and 0.10%, the vehicle being the isotonic 0.9% solution of NaCl.
The average anaesthetic activity of the substances chosen is expressed comparatively to that of the reference product chosen, by calculating the ratio of the average number n of the stimulations necessary to obtain the appearance of the skin reflex in the case of the derivatives studied, to the average number (n') of the stimulation determined for the reference substance.
The procaine hydrochloride and the derivatives studied are administered by the intradermal route at the rate of 0.20 ml per injection.

Compound	Spasmolytic activity Papaverinic type DE 30 [1]	EC50 [1]	EC50 [2]	Spasmolytic activity Atropinic type DE 30 [2]	average number of stimulations for procaine hydrochloride n' [3]
O=C(OCCN1CCCCC1)C(Cc1ccccc1)Cc1csc2ccccc12 (stereo not shown) [Compound 27]	6.0 μg for 20 ml of bath	0.6 µg/mL (≈ 1.47 µM)			
O=C(OCCN1CCCCCC1)C(Cc1ccccc1)Cc1csc2ccccc12 (stereo not shown) [Compound 28]	6.5 μg for 20 ml of bath	0.7 µg/mL (≈ 1.66 µM)	250 µg/mL (≈ 593 µM)	750 μg/20 ml of bath	
CN(C)CCCOC(=O)C(Cc1ccccc1)Cc1csc2ccccc12 (stereo not shown) [Compound 29]	4.0 μg for 20 ml of bath	0.425 µg/mL (≈ 1.11 µM)	5 µg/mL (≈ 13.1 µM)	45 μg/20 ml of bath	
CCN(CC)CCCOC(=O)C(Cc1ccccc1)Cc1csc2ccccc12 (stereo not shown) [Compound 30]	6.0 μg for 20 ml of bath	0.65 µg/mL (≈ 1.59 µM)			
O=C(OCCCN1CCCC1)C(Cc1ccccc1)Cc1csc2ccccc12 (stereo not shown) [Compound 31]	16.0 μg for 20 ml of bath	1.4 µg/mL (≈ 3.43 µM)	3.25 µg/mL (≈ 7.97 µM)	40 μg/20 ml of bath	
O=C(OCCCN1CCCCC1)C(Cc1ccccc1)Cc1csc2ccccc12 (stereo not shown) [Compound 32]	4.5 μg for 20 ml of bath	0.475 µg/mL (≈ 1.13 µM)			
O=C(OCCCN1CCCCCC1)C(Cc1ccccc1)Cc1csc2ccccc12 (stereo not shown) [Compound 33]	4.0 μg for 20 ml of bath	0.425 µg/mL (≈ 0.976 µM)			
CC(CN1CCCC1)OC(=O)C(Cc1ccccc1)Cc1csc2ccccc12 (stereo not shown) [Compound 34]	8.0 μg for 20 ml of bath	0.8 µg/mL (≈ 1.96 µM)			
CCN(CC)CCOC(=O)C(Cc1cccs1)Cc1csc2ccccc12 (stereo not shown) [Compound 36]	8.5 μg for 20 ml of bath	1 µg/mL (≈ 2.49 µM)	1.4 µg/mL (≈ 3.49 µM)	14 μg/20 ml of bath	
O=C(OCCN1CCCCC1)C(Cc1cccs1)Cc1csc2ccccc12 (stereo not shown) [Compound 38]	6.0 μg for 20 ml of bath	0.8 µg/mL (≈ 1.93 µM)	10 µg/mL (≈ 24.2 µM)	95 μg/20 ml of bath	
O=C(OCCN1CCOCC1)C(Cc1cccs1)Cc1csc2ccccc12 (stereo not shown) [Compound 39]	43.0 μg for 20 ml of bath	4 µg/mL (≈ 9.63 µM)			
CN(C)CCCOC(=O)C(Cc1cccs1)Cc1csc2ccccc12 (stereo not shown) [Compound 41]	4.3 μg for 20 ml of bath	0.525 µg/mL (≈ 1.35 µM)	2.3 µg/mL (≈ 5.93 µM)	24 μg/20 ml of bath	
O=C(OCCCN1CCCCC1)C(Cc1cccs1)Cc1csc2ccccc12 (stereo not shown) [Compound 44]	5.5 μg for 20 ml of bath	0.4 µg/mL (≈ 0.935 µM)	3.5 µg/mL (≈ 8.18 µM)	30 μg/20 ml of bath	
O=C(OCCCN1CCCCCC1)C(Cc1cccs1)Cc1csc2ccccc12 (stereo not shown) [Compound 45]	14.0 μg for 20 ml of bath	1.35 µg/mL (≈ 3.06 µM)			
CC(CN1CCCC1)OC(=O)C(Cc1cccs1)Cc1csc2ccccc12 (stereo not shown) [Compound 46]	2.5 μg for 20 ml of bath	0.5 µg/mL (≈ 1.21 µM)	0.9 µg/mL (≈ 2.18 µM)	6.5 μg/20 ml of bath	
CN(C)CCOC(=O)C(Cc1csc2ccccc12)CC1CCCO1 (stereo not shown) [Compound 47]	9.0 μg for 20 ml of bath	0.75 µg/mL (≈ 2.07 µM)			
CCN(CC)CCOC(=O)C(Cc1csc2ccccc12)CC1CCCO1 (stereo not shown) [Compound 48]	6.0 μg for 20 ml of bath	1.25 µg/mL (≈ 3.21 µM)	0.9 µg/mL (≈ 2.31 µM)	10 μg/20 ml of bath	
CN(C)CCCOC(=O)C(Cc1csc2ccccc12)CC1CCCO1 (stereo not shown) [Compound 52]	8.0 μg for 20 ml of bath	0.7 µg/mL (≈ 1.86 µM)			
O=C(OCCCN1CCCCCC1)C(Cc1csc2ccccc12)CC1CCCO1 (stereo not shown) [Compound 56]	10.0 μg for 20 ml of bath	0.8 µg/mL (≈ 1.86 µM)			
CN1C2CCC1CC(OC(=O)C(CO)c1ccccc1)C2 (stereo not shown) [atropine sulphate, reference compound]			≤ 0.005 µg/mL		
CCN(CC)CCOC(=O)c1ccc(N)cc1 [procaine hydrochloride, reference compound]					30.5 and 33.9 and 36.0 and 27.2 and 29.5 and 29.2 and 33.7 and 28.2
